One experiment has as its target T1, C-Raf (Homo sapiens, UniProt P04049).
T1 construct: purchased Proteros biostructures GmbH (selectivity panel service)
The experiment in a line: Biochemical inhibition, standard selectivity panel (Proteros). Further details: dose or concentration left out as unconfirmed. As for the experimental part:
(§1) For example, selected compound of the present invention were tested in a standard selectivity panel including c-Raf, p38, and 22 other kinases (Proteros biostructures GmbH, Martinsried/Munich, Germany), under conditions of non-disclosure, non-dissemination and non-use.
(§2) In brief, selected compounds of the present invention were tested […] in triplicates against c-Raf, p38 as well as against Ab1, Akt1, Aur A, c-Kit, c-Raf, Cdk1/CycB, Chk1, FGFR3, Flt3, Fyn, IGF1-R, INSR, Lyn, MAPK-ERK1, PAK-4, PKCalpha, Plk1, Ret, ROCK2, RSK 1, c-Src, TIE2, and VEGF-R2.

Another experiment concerns the target T2, p38 (Homo sapiens, UniProt Q16539).
T2 construct: purchased Proteros biostructures GmbH (selectivity panel service)
The experiment is described as above. Also noted: dose or concentration left out as unconfirmed. As for the experimental part: as §1, §2

For experiment [1], the system named is HT-29 [B-Raf V600E mutant]. In words: Anti-proliferative activity, SRB assay, 72 hours. The format is cell-based. Conditions: Homo sapiens, read-out: CELLULAR IC50 [μM] HT-29 [B-Raf V600E mutant]. As for the experimental part:
We observed the surprising finding that compounds of the invention were useful in inhibiting proliferation of HT-29 tumor cells (see Table 3).
(§3) Cells were exposed to the test compounds at various concentrations appropriate to determine an IC50, for 72 hours, and cell proliferation was measured using the SRB assay according to Shekan et al (J Natl Cancer Inst (1990) 82, 1107-112) in order to estimate the IC50 values shown in Table 3.
(§4) Briefly, cells were plated in 96 well dishes 24 hours prior to compound addition at the densities specified in Table 11.1.
(§5) The assay was terminated with the addition of ice cold 10% TCA after growth medium has been removed and the plates were incubated over night at 4° C. The plates were then washed 5 times with water and 100 μl of a Sulforhodamine B solution ([…]) was added to each well. The plates were then incubated for 10 minutes at room temperature before removal of unbound dye by washing with 1% acetic acid. The bound dye was solubilized with 10 mM Trizma base and the absorbance read at OD520.
(§6) Inhibitory activity of the compounds was calculated as % inhibition of cell proliferation compared to cells treated with the solvent (DMSO).

Another experiment has as its system A-431 [B-Raf wildtype]. In words: Anti-proliferative activity, SRB assay, 72 hours. The format is cell-based. Conditions: Homo sapiens, read-out: CELLULAR IC50 [μM] A-431 [B-Raf wildtype]. As for the experimental part:
as §3, §4, §5, §6

The source of these data is patent US8232283B2, “Raf inhibitors” (Forma Therapeutics, Inc., priority 2008, dated 2012).

Usually inhibition stands for the drop in the measured response relative to a control, in per cent. By IC50 is commonly meant the concentration that gives 50% inhibition.

T2 sequence (Q16539 whole entry): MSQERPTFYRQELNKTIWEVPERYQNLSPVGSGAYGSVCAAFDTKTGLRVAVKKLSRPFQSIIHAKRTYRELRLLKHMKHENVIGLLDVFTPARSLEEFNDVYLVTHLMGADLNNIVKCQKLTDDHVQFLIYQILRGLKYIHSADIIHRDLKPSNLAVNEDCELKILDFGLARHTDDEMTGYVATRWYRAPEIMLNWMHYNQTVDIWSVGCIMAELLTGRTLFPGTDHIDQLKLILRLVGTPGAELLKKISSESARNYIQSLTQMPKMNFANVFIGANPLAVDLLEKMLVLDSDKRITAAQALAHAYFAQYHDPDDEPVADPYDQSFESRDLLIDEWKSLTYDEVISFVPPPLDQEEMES
T1 sequence (P04049 whole entry): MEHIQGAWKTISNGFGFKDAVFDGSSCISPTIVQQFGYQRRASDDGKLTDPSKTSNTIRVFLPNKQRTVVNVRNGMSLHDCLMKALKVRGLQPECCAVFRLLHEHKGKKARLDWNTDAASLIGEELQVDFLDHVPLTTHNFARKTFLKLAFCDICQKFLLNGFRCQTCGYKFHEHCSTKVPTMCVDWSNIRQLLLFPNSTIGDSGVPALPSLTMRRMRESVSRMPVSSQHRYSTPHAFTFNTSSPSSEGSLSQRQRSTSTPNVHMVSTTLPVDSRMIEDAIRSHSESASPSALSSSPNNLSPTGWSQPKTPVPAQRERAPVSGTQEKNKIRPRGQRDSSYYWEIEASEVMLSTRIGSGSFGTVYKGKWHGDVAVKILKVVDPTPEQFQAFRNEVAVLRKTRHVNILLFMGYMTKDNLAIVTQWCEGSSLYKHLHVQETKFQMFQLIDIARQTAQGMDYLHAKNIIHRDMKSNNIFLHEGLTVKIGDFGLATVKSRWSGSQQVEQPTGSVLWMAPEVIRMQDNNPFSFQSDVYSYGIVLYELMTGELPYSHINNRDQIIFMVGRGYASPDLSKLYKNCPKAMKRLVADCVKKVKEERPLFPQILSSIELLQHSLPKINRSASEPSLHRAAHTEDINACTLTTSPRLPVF

In the case of `COc1ccc(NC(=O)Nc2ccc(Cl)c(-c3cc4cnc(NCCN(C)C)nc4n(OC)c3=O)c2)cc1Cl` [Compound 4, 1-{4-Chloro-3-[2-(2-dimethylamino-ethylamino)-8-methoxy-7-oxo-7,8-dihydro-pyrido[2,3-d]pyrimidin-6-yl]-phenyl}-3-(3-chloro-4-methoxy-phenyl)-urea], the inhibition against C-Raf and on p38 was more than 70% each time. Moreover, the IC50 in experiment [1] is less than 10 µM; with A-431 [B-Raf wildtype], more than 10 µM.
For the compound `COn1c(=O)c(-c2cc(NC(=O)c3ccc(Cl)c(Cl)c3)ccc2Cl)cc2cnc(NCCN(C)C)nc21` [Compound 10, 3,4-Dichloro-N-{4-chloro-3-[2-(2-dimethylamino-ethylamino)-8-methoxy-7-oxo-7,8-dihydro-pyrido[2,3-d]pyrimidin-6-yl]-phenyl}-benzamide], the inhibition against C-Raf and at p38 was more than 70% in each case. In addition, the IC50 in experiment [1] is less than 5 µM; in the experiment with A-431 [B-Raf wildtype], more than 10 µM.
As to `COn1c(=O)c(-c2cc(NC(=O)c3ccc(F)c(C(F)(F)F)c3)ccc2Cl)cc2cnc(NCCN(C)C)nc21` [Compound 17, N-{4-Chloro-3-[2-(2-dimethylamino-ethylamino)-8-methoxy-7-oxo-7,8-dihydro-pyrido[2,3-d]pyrimidin-6-yl]-phenyl)-4-fluoro-3-trifluoromethyl-benzamide], the inhibition against C-Raf and at p38 was more than 70% in each case. The half-maximal inhibitory concentration (IC50) in experiment [1] is less than 5 µM; with A-431 [B-Raf wildtype], more than 10 µM.
In the case of `COn1c(=O)c(-c2ccc(NC(=O)c3cc(C(C)(C)C)nn3-c3ccccc3)cc2Cl)cc2cnc(NCCN(C)C)nc21` [Compound 56, 5-tert-Butyl-2-phenyl-2H-pyrazole-3-carboxylic acid {3-chloro-4-[2-(2-dimethylamino-ethylamino)-8-methoxy-7-oxo-7,8-dihydro-pyrido[2,3-d]pyrimidin-6-yl]-phenyl}-amide], the IC50 was less than 5 µM in experiment [1] and less than 10 µM with A-431 [B-Raf wildtype].
On to `COn1c(=O)c(-c2cc(NC(=O)c3cc(Cl)nc(N4CCCCC4)c3)ccc2Cl)cc2cnc(NCCN(C)C)nc21` [Compound 60, 2-Chloro-N-(4-chloro-3-(2-(2-(dimethylamino)ethylamino)-8-methoxy-7-oxo-7,8-dihydropyrido[2,3-d]pyrimidin-6-yl)phenyl)-6-pyperidin-1-yl-isonicotinamide], for which the IC50 in experiment [1] is less than 5 µM; with A-431 [B-Raf wildtype], less than 10 µM.
On the same counts, the results for `COn1c(=O)c(-c2cc(NC(=O)c3nc4ccc(F)cc4[nH]3)ccc2Cl)cc2cnc(NCCN(C)C)nc21` [Compound 40, 6-Fluoro-1H-benzoimidazole-2-carboxylic acid {4-chloro-3-[2-(2-dimethylamino-ethylamino)-8-methoxy-7-oxo-7,8-dihydro-pyrido[2,3-d]pyrimidin-6-yl]-phenyl}-amide] are more than 10 µM and more than 10 µM.
On the same counts, the results for `COn1c(=O)c(-c2cc(NC(=O)c3ccc(C(F)(F)F)cc3)ccc2Cl)cc2cnc(NCCN(C)C)nc21` [Compound 34, N-{4-Chloro-3-[2-(2-dimethylamino-ethylamino)-8-methoxy-7-oxo-7,8-dihydro-pyrido[2,3-d]pyrimidin-6-yl]-phenyl}-4-trifluoromethyl-benzamide] are less than 10 µM and more than 10 µM.
For `COn1c(=O)c(-c2cc(NC(=O)c3cc(Cl)cc(Cl)c3)ccc2Cl)cc2cnc(NCCN(C)C)nc21` [Compound 22, 3,5-Dichloro-N-{4-chloro-3-[2-(2-dimethylamino-ethylamino)-8-methoxy-7-oxo-7,8-dihydro-pyrido[2,3-d]pyrimidin-6-yl]-phenyl}-benzamide], the half-maximal inhibitory concentration (IC50) was less than 5 µM in experiment [1] and more than 10 µM in the experiment with A-431 [B-Raf wildtype].
As for `COn1c(=O)c(-c2cc(NC(=O)c3cc(Cl)nc(NC4CCN(C)CC4)c3)ccc2Cl)cc2cnc(NCCN(C)C)nc21` [Compound 66], the results for the concentration for half-maximal inhibition (IC50) (in experiment [1]; in the experiment on A-431 [B-Raf wildtype]) were less than 10 µM and more than 10 µM, respectively.
Regarding `COn1c(=O)c(-c2ccc(NC(=O)c3ccc(CN4CCN(C)CC4)cc3)cc2Cl)cc2cnc(NCCN(C)C)nc21` [Compound 53, N-{3-Chloro-4-[2-(2-dimethylamino-ethylamino)-8-methoxy-7-oxo-7,8-dihydro-pyrido[2,3-d]pyrimidin-6-yl]-phenyl}-4-(4-methyl-piperazin-1-ylmethyl)-benzamide], the IC50 (in experiment [1]; in the experiment with A-431 [B-Raf wildtype]) was more than 10 µM each time.
With `COn1c(=O)c(-c2ccc(NC(=O)c3ccc(Cl)c(OC(F)(F)F)c3)cc2Cl)cc2cnc(NCCN(C)C)nc21` [Compound 52, 4-Chloro-N-{3-chloro-4-[2-(2-dimethylamino-ethylamino)-8-methoxy-7-oxo-7,8-dihydro-pyrido[2,3-d]pyrimidin-6-yl]-phenyl}-3-trifluoromethoxy-benzamide], the 50% inhibitory concentration (IC50) was less than 5 µM in experiment [1] and less than 10 µM with A-431 [B-Raf wildtype].
With `COn1c(=O)c(-c2cc(NC(=O)Nc3ccc(Oc4ccccc4)cc3)ccc2Cl)cc2cnc(NCCN(C)C)nc21` [Compound 45, 1-{4-Chloro-3-[2-(2-dimethylamino-ethylamino)-8-methoxy-7-oxo-7,8-dihydro-pyrido[2,3-d]pyrimidin-6-yl]-phenyl}-3-(4-phenoxy-phenyl)-urea], the figures for the IC50 (in experiment [1]; in the experiment with A-431 [B-Raf wildtype]) were less than 5 µM and less than 10 µM, respectively.
Consider `COn1c(=O)c(-c2cc(NC(=O)c3cc(C(C)(C)C)n[nH]3)ccc2Cl)cc2cnc(NCCN(C)C)nc21` [Compound 9, 5-tert-Butyl-2H-pyrazole-3-carboxylic acid {4-chloro-3-[2-(2-dimethylamino-ethylamino)-8-methoxy-7-oxo-7,8-dihydro-pyrido[2,3-d]pyrimidin-6-yl]-phenyl}-amide], for which the IC50 (in experiment [1]; in the experiment on A-431 [B-Raf wildtype]) was more than 10 µM in each case.
For the compound `COn1c(=O)c(-c2cc(NC(=O)c3ccccc3)ccc2Cl)cc2cnc(NCCN(C)C)nc21` [Compound 33, N-{4-Chloro-3-[2-(2-dimethylamino-ethylamino)-8-methoxy-7-oxo-7,8-dihydro-pyrido[2,3-d]pyrimidin-6-yl]-phenyl}-benzamide], the half-maximal inhibitory concentration (IC50) (in experiment [1]; in the experiment on A-431 [B-Raf wildtype]) was more than 10 µM each time.
As for `COn1c(=O)c(-c2ccc(NC(=O)Cc3ccc(Cl)c(C(F)(F)F)c3)cc2Cl)cc2cnc(NCCN(C)C)nc21` [Compound 57, N-{3-Chloro-4-[2-(2-dimethylamino-ethylamino)-8-methoxy-7-oxo-7,8-dihydro-pyrido[2,3-d]pyrimidin-6-yl]-phenyl}-2-(4-chloro-3-trifluoromethyl-phenyl)-acetamide], the IC50 (in experiment [1]; in the experiment on A-431 [B-Raf wildtype]) was less than 10 µM throughout.
For the compound `COn1c(=O)c(-c2cc(NC(=O)c3ccc(C(F)(F)F)cc3F)ccc2Cl)cc2cnc(NCCN(C)C)nc21` [Compound 20], the IC50 (in experiment [1]; in the experiment on A-431 [B-Raf wildtype]) was more than 10 µM throughout.
As to `COn1c(=O)c(-c2cc(NC(=O)c3cc(Cl)nc(Cl)c3)ccc2Cl)cc2cnc(NCCN(C)C)nc21` [Compound 7, 2,6-Dichloro-N-(4-chloro-3-(2-(2-(dimethylamino)ethylamino)-8-methoxy-7-oxo-7,8-dihydropyrido[2,3-d]pyrimidin-6-yl)phenyl)-isonicotinamide], the figures for the 50% inhibitory concentration (IC50) (in experiment [1]; in the experiment on A-431 [B-Raf wildtype]) were less than 10 µM and more than 10 µM, respectively.
With `COn1c(=O)c(-c2cc(NC(=O)Nc3cccc(C(F)(F)F)c3F)ccc2Cl)cc2cnc(NCCN(C)C)nc21` [Compound 48, 1-{4-Chloro-3-[2-(2-dimethylamino-ethylamino)8-methoxy-7-oxo-7,8-dihydro-pyrido[2,3-d]pyrimidin-6-yl]-phenyl}-3-(2-fluoro-3-trifluoromethyl-phenyl)-urea], the IC50 in experiment [1] was less than 5 µM; with A-431 [B-Raf wildtype], more than 10 µM.
As for `COc1ccc(C(=O)Nc2ccc(Cl)c(-c3cc4cnc(NCCN(C)C)nc4n(OC)c3=O)c2)cc1Cl` [Compound 21, 3-Chloro-N-{4-chloro-3-[2-(2-dimethylamino-ethylamino)-8-methoxy-7-oxo-7,8-dihydro-pyrido[2,3-d]pyrimidin-6-yl]-phenyl}-4-methoxy-benzamide], the half-maximal inhibitory concentration (IC50) in experiment [1] is less than 5 µM; with A-431 [B-Raf wildtype] it was more than 10 µM.
Regarding `COn1c(=O)c(-c2cc(NC(=O)Cc3cccc(C(F)(F)F)c3)ccc2Cl)cc2cnc(NCCN(C)C)nc21` [Compound 25, N-{4-Chloro-3-[2-(2-dimethylamino-ethylamino)-8-methoxy-7-oxo-7,8-dihydro-pyrido[2,3-d]pyrimidin-6-yl]-phenyl}-2-(3-trifluoromethyl-phenyl)-acetamide], the IC50 was less than 5 µM in experiment [1] and more than 10 µM in the experiment with A-431 [B-Raf wildtype].
